Measurements published in publication PMC11754779, “Mechanism of sensor kinase CitA transmembrane signaling” (Nature Communications, 2025).
Blank lines part the entries; values can stand above or below the molecule they belong to.

Assays:
[1] = molecular target: T1, CitApc (C12A/R93A CitA1-309) (Geobacillus thermodenitrificans, UniProt A4IPE6, C12A/R93A); assay: 1H-detected MAS solid-state NMR chemical shifts; type: binding; details: 5 mM sodium citrate, 20 mM sodium phosphate pH 6.5; DMPC/DMPA liposomes; 293 K
T1 construct: gene GTNG_1840; residues 1-309 (PASp, TM helices, PASc; no kinase core); E. coli C43(DE3), Ni-NTA purified; reconstituted in DMPC/DMPA liposomes; dimer

Gt CitA PASp domain (WT) = molecular target: T2, Gt CitA PASp domain (WT) (Geobacillus thermodenitrificans, UniProt A4IPE6); assay: X-ray crystallography, molecular replacement; type: binding; details: 1 mM sodium citrate added; crystallised from 1 M tri-sodium citrate, 0.1 M imidazole pH 9.0
T2 construct: gene GTNG_1840; periplasmic (extracytoplasmic) PAS/PDC sensor domain; E. coli BL21(DE3); N-terminal His-tag removed with TEV protease

full length Gt CitA = molecular target: T3, full length Gt CitA (Geobacillus thermodenitrificans, UniProt A4IPE6, C12A/R93A/N308C, form not given); assay: […] NMR ATP hydrolysis assay in DMPC liposomes; type: biochemical; details: 5 mM sodium citrate; 6 mM ATP, 10 mM MgCl2, pH 6.5, 37 C; untagged and CH2COCF3-tagged at N308C; activator
T3 construct: gene GTNG_1840; full length; vector pET16b, Ni-NTA purified, reconstituted in DMPC liposomes (C12A/R93A/N308C); pMW1652 in E. coli IMW549 for reporter assay

[2] = molecular target: T4, CitApc (C12A/R93A CitA1-309) (Geobacillus thermodenitrificans, UniProt A4IPE6, C12A/R93A/N308C); assay: […] CODEX with DNP, inter-dimer distance change; type: binding; details: CH2COCF3-tagged at N308C; liposomes; 90 K
T4 construct: gene GTNG_1840; residues 1-309 (PASp, TM helices, PASc; no kinase core); E. coli C43(DE3), Ni-NTA purified; reconstituted in DMPC/DMPA liposomes; dimer

[3] = molecular target: N288D mutant of the cytosolic PAS domain (PASc) of Geobacillus thermodenitrificans CitA (Geobacillus thermodenitrificans); assay: SEC; size exclusion column, down to a concentration of 1 μM (Supplementary Fig. 8)
[4] = molecular target: wild-type cytosolic PAS domain (PASc) of Geobacillus thermodenitrificans CitA (Geobacillus thermodenitrificans); assay: as above

T3 sequence (A4IPE6 entry or part of it C12A/R93A/N308C, form open): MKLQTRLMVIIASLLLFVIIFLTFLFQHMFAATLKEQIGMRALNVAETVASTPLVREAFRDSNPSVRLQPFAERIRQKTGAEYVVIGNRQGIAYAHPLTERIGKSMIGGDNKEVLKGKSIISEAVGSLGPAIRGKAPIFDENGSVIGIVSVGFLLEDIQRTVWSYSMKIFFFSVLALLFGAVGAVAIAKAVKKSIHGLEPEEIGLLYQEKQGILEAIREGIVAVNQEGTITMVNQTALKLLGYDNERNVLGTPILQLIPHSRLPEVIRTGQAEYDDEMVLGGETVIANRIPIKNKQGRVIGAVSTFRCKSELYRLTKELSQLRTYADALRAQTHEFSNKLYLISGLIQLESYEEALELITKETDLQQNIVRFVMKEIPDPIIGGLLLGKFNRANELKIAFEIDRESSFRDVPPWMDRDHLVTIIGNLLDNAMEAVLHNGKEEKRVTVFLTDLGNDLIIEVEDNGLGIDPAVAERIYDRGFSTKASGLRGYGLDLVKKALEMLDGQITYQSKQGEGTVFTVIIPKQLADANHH
T1 sequence (A4IPE6 entry or part of it C12A/R93A): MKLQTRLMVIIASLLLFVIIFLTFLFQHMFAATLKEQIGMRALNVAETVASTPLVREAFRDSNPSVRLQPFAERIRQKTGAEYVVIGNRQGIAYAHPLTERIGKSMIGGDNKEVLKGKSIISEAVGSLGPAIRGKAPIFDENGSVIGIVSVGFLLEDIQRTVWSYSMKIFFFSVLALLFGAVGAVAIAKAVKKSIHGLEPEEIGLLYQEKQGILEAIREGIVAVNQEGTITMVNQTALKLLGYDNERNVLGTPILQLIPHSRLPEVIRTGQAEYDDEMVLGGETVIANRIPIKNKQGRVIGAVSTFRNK
T4 sequence (A4IPE6 entry or part of it C12A/R93A/N308C): as the sequence (A4IPE6 entry or part of it C12A/R93A) above, with N308C counted along it
T2 sequence (A4IPE6 entry or part of it): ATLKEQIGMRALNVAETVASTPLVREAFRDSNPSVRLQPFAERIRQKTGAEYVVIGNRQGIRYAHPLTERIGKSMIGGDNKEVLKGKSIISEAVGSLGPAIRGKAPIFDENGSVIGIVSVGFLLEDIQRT

Molecule: O=C(O)CC(O)(CC(=O)O)C(=O)O [citrate]
1H-detected MAS solid-state NMR chemical shifts [1]: also indicate changes in secondary structure upon addition of citrate
X-ray crystallography, molecular replacement (Gt CitA PASp domain (WT)): Superposition of the citrate-bound Gt PASp domain structure (PDB: 8BGB
31P NMR ATP hydrolysis assay in DMPC liposomes (full length Gt CitA): Upon citrate binding, a threefold increase in CitA’s ATP hydrolysis rate was observed
19F CODEX with DNP, inter-dimer distance change [2]: A decay in the CODEX signal to half of the reference signal was observed when citrate was bound

stoichiometry N [3]: 2
Molecule: N288D mutant of the cytosolic PAS domain (PASc) of Geobacillus thermodenitrificans CitA (domain or fragment)

stoichiometry N [4]: 2
Molecule: wild-type cytosolic PAS domain (PASc) of Geobacillus thermodenitrificans CitA (domain or fragment)
